From patent US20160311791A1, “NOVEL TRICYCLIC CALCIUM SENSING RECEPTOR ANTOGONISTS FOR THE TREATMENT OF OSTEOPOSOSIS” (MERCK SHARP & DOHME CORP., priority 2013, published 2016)

Target: T1, human CaSR (Homo sapiens, UniProt P41180)
T1 sequence (P41180 20-1078): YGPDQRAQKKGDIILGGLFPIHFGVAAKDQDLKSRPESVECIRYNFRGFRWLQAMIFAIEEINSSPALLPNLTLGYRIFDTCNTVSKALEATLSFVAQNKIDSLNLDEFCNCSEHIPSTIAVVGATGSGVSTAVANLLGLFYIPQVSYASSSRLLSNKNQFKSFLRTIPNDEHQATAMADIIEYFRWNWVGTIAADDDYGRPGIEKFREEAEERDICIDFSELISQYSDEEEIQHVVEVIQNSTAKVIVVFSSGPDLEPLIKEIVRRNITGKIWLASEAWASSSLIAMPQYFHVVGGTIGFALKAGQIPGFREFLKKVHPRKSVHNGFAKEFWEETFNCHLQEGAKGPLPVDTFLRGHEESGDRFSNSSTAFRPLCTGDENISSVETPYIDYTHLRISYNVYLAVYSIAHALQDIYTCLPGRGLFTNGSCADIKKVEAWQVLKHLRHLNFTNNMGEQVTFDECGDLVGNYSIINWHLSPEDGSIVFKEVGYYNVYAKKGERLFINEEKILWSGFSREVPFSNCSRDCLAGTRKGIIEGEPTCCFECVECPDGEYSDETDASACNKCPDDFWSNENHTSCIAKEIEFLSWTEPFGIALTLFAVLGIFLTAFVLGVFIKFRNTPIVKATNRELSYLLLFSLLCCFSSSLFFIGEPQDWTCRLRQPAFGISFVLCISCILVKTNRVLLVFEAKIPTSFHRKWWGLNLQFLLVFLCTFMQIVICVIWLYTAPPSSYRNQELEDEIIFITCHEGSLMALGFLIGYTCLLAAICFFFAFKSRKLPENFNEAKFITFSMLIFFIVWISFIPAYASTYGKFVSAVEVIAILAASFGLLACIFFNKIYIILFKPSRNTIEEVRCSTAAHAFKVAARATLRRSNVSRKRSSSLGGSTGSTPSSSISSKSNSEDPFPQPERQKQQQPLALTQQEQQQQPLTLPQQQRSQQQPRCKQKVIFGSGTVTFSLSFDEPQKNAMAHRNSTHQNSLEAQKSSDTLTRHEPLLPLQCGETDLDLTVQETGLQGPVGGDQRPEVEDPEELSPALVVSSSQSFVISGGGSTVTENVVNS
Assay: CaSR binding assay (radioligand, HEK293 membranes)
Design: expressed in transfected cells; host or cells: HEK293 cell membranes
Details: for Ki: membranes of HEK293 cells expressing human CaSR, radio-labeled EXAMPLE 25; for IC50: read-out: IC50s (high affinity for the human calcium sensing receptor and potent antagonist activity)
Protocol: Procedures for CaSR Binding Assay
Membrane preparations from HEK293 cells expressing the human CaSR were generated. The cells were cultured and then washed twice with 1×PBS. The cells were dissociated by adding 4 ml pre-warmed 0.25% Trypsin-EDTA, and by incubating the flask at RT for 3 minutes. 10 ml media was dispensed over the cell layer surface, and the cells were harvested into a centrifuge tube. The cells were centrifuged at 200×g for 10 minutes. The cell pellet was suspended in 30 ml of membrane preparation buffer and then homogenized on ice twice at 16000 rpm for 10 seconds. Following homogenization, the membrane was collected by centrifuge at 40000×g for 30 minutes at 4° C., washed twice with 30 ml membrane preparation buffer, and centrifuged again at 40000×g for 10 minutes. The membrane pellet was suspended in 30 ml membrane preparation buffer (50 mM Tris, pH7.0, 10 mM MgCl, Proteinase inhibitor (Roche, REF 04693116001), and then homogenized on ice once at 16000 rpm for 10 seconds. The total protein concentration was measured using a BCA kit. The membrane protein concentration was adjusted to 2.4 mg/ml and then diluted with binding buffer (10 mM HEPES, pH7.4, 130 mM NaCl, 0.4 mM CaCl2, 5 mM MgCl2, 1 mM EGTA, 10 mM glucose, 0.1% BSA) to 0.33 μg/μl. The final amount in the binding assay was 20 μg/well. Test compound was serially diluted manually by using BIOHIT multi-channel pipettor in 100% DMSO (10 point, 3-fold dilution of each compound from 5.0 μM in 100% DMSO). 4 μl of serially diluted compound was manually transferred into a second assay microplate that contained 196 μl of binding assay buffer to create the intermediate dilution plate. For background, 20 μl of assay buffer was added to each control well. […] The binding reaction used a 100 μl reaction volume consisting of 10 μl of test compound, 30 μl of diluted radio-labelled compound, and 60 μl of membrane solution (0.33 μg/μl). The reaction mixture was incubated at room temperature for one hour. The Grade GF/C filter plates were presoaked in 0.3% PEI (protect from light) for 60 minutes at room temperature. The plate was then washed three times with ice-cold wash buffer (25 mM Tris-HCl, PH7.4, 130 mM NaCl, 5 mM MgCl2, 0.4 mM CaCl2, 0.1% BSA) prior to filtration of the binding samples. The binding reaction was terminated by rapid filtration of 100 μl binding mixture through the GF/C plate. Plates were then washed 6 times with ice-cold wash buffer. Filter plates were dried with a hair dryer for 20 minutes. 60 μl/well MICROSCINT 20 (a cocktail for microplates) was added to the bottom of sealed filters, then the filters were sealed at the top with tape. Bound radioactivity was counted in a TOPCOUNT scintillation counter. Exemplary compounds bind in the 1-500 nM range.

## C[C@@H](OC[C@H](O)CNC(C)(C)Cc1ccc2ccccc2c1)c1cccc2c1[C@@H]1[C@H](O2)[C@H]1C(=O)O [Example 5-1]
  Ki: 7 nM
  IC50: 7 nM

## C[C@@H](OC[C@H](O)CNC(C)(C)Cc1ccc2ccccc2c1)c1cccc2c1O[C@@H]1[C@@H](C(=O)O)[C@H]21 [Example 1-1]
  Ki: 18 nM
  IC50: 18 nM

## CSc1ccc(CC(C)(C)NC[C@@H](O)CO[C@H](C)c2ccc(C)c3c2C2[C@H](O3)[C@H]2C(=O)O)cc1F (stereo partly drawn) [Example 8-24]
  Ki: 29 nM
  IC50: 29 nM
